The molecules below were run on NL-RLuc virus (assay: Inhibition of HIV replication (NL-RLuc luciferase reporter virus in MT-2 cells)). Details: Human immunodeficiency virus 1, MT2, 120 h, read-out: Activity.
Type: cell-based
Summary of the method: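 MT-2 cells were infected with NL4-3-derived virus carrying Renilla luciferase in place of part of nef, in RPMI/10% FBS, with serial compound dilutions. Luciferase read after 5 days of multicycle replication. EC50 from the median effect equation, at least 2 experiments.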
For `Cc1nc(CN2CCN(C)CC2)c(-c2ccc(OCCc3ccc(F)cc3)cc2)c(N2CCC(C)(C)CC2)c1[C@H](OC(C)(C)C)C(=O)O` [Example 94, (S)-2-(tert-Butoxy)-2-(4-(4,4-dimethylpiperidin-1-yl)-5-(4-(4-fluorophenethoxy)phenyl)-2-methyl-6-((4-methylpiperazin-1-yl)methyl)pyridin-3-yl)acetic acid], the EC50 was less than 0.1 µM.
`Cc1nc(CNCc2ccccn2)c(-c2ccc(OCCc3ccc(F)cc3)cc2)c(N2CCC(C)(C)CC2)c1[C@H](OC(C)(C)C)C(=O)O` [Example 95, (S)-2-(tert-Butoxy)-2-(4-(4,4-dimethylpiperidin-1-yl)-5-(4-(4-fluorophenethoxy)phenyl)-2-methyl-6-(((pyridin-2-ylmethyl)amino)methyl)pyridin-3-yl)acetic acid] showed an EC50 of less than 0.1 µM.
Work on `Cc1nc(CN2[C@@H]3CC[C@H]2CN(C)C3)c(-c2ccc(OCCc3ccc(F)cc3)cc2)c(N2CCC(C)(C)CC2)c1[C@H](OC(C)(C)C)C(=O)O` [Example 96, (S)-2-(tert-butoxy)-2-(4-(4,4-dimethylpiperidin-1-yl)-5-(4-(4-fluorophenethoxy)phenyl)-2-methyl-6-(((1R,5S)-3-methyl-3,8-diazabicyclo[3.2.1]octan-8-yl)methyl)pyridin-3-yl)acetic acid] yielded an EC50 of less than 0.1 µM.
In the case of `Cc1nc(CN(C)Cc2ccccc2)c(-c2ccc(OCCc3ccc(F)cc3)cc2)c(N2CCC(C)(C)CC2)c1[C@H](OC(C)(C)C)C(=O)O` [Example 97, (S)-2-(6-((Benzyl(methyl)amino)methyl)-4-(4,4-dimethylpiperidin-1-yl)-5-(4-(4-fluorophenethoxy)phenyl)-2-methylpyridin-3-yl)-2-(tert-butoxy)acetic acid], the EC50 is reported as less than 0.1 µM.
Work on `Cc1nc(CN2C3CC2CN(Cc2ccccc2)C3)c(-c2ccc(OCCc3ccc(F)cc3)cc2)c(N2CCC(C)(C)CC2)c1[C@H](OC(C)(C)C)C(=O)O` [Example 98, (2S)-2-(6-((3-Benzyl-3,6-diazabicyclo[3.1.1]heptan-6-yl)methyl)-4-(4,4-dimethylpiperidin-1-yl)-5-(4-(4-fluorophenethoxy)phenyl)-2-methylpyridin-3-yl)-2-(tert-butoxy)acetic acid] yielded an EC50 of less than 0.1 µM.
In the case of `Cc1nc(CNCC2CCCCC2)c(-c2ccc(OCCc3ccc(F)cc3)cc2)c(N2CCC(C)(C)CC2)c1[C@H](OC(C)(C)C)C(=O)O` [Example 99, (S)-2-(tert-Butoxy)-2-(6-(((cyclohexylmethyl)amino)methyl)-4-(4,4-dimethylpiperidin-1-yl)-5-(4-(4-fluorophenethoxy)phenyl)-2-methylpyridin-3-yl)acetic acid], the EC50 is reported as less than 0.1 µM.
In the case of `Cc1nc(CN(C)CC2CCCCC2)c(-c2ccc(OCCc3ccc(F)cc3)cc2)c(N2CCC(C)(C)CC2)c1[C@H](OC(C)(C)C)C(=O)O` [Example 100, (S)-2-(tert-Butoxy)-2-(6-(((cyclohexylmethyl)(methyl)amino)methyl)-4-(4,4-dimethylpiperidin-1-yl)-5-(4-(4-fluorophenethoxy)phenyl)-2-methylpyridin-3-yl)acetic acid], the EC50 is reported as less than 0.1 µM.
Work on `CC(=O)N(C)Cc1nc(C)c([C@H](OC(C)(C)C)C(=O)O)c(N2CCC(C)(C)CC2)c1-c1ccc(OCCc2ccc(F)cc2)cc1` [Example 101, (S)-2-(tert-Butoxy)-2-(4-(4,4-dimethylpiperidin-1-yl)-5-(4-(4-fluorophenethoxy)phenyl)-2-methyl-6-((N-methylacetamido)methyl)pyridin-3-yl)acetic acid] yielded an EC50 of less than 0.1 µM.
Molecule `Cc1nc(CN(C)C(=O)C(=O)N(C)C)c(-c2ccc(OCCc3ccc(F)cc3)cc2)c(N2CCC(C)(C)CC2)c1[C@H](OC(C)(C)C)C(=O)O` [Example 102, (S)-2-(tert-Butoxy)-2-(6-((2-(dimethylamino)-N-methyl-2-oxoacetamido)methyl)-4-(4,4-dimethylpiperidin-1-yl)-5-(4-(4-fluorophenethoxy)phenyl)-2-methylpyridin-3-yl)acetic acid] has an EC50 of less than 0.1 µM.
`Cc1nnc(C(=O)N(C)Cc2nc(C)c([C@H](OC(C)(C)C)C(=O)O)c(N3CCC(C)(C)CC3)c2-c2ccc(OCCc3ccc(F)cc3)cc2)o1` [Example 103, (S)-2-(tert-butoxy)-2-(6-((N,5-dimethyl-1,3,4-oxadiazole-2-carboxamido)methyl)-4-(4,4-dimethylpiperidin-1-yl)-5-(4-(4-fluorophenethoxy)phenyl)-2-methylpyridin-3-yl)acetic acid] gave an EC50 of less than 0.1 µM.
Work on `Cc1nnc(C(=O)NCc2nc(C)c([C@H](OC(C)(C)C)C(=O)O)c(N3CCC(C)(C)CC3)c2-c2ccc(OCCc3ccc(F)cc3)cc2)o1` [Example 104, (S)-2-(tert-Butoxy)-2-(4-(4,4-dimethylpiperidin-1-yl)-5-(4-(4-fluorophenethoxy)phenyl)-2-methyl-6-((5-methyl-1,3,4-oxadiazole-2-carboxamido)methyl)pyridin-3-yl)acetic acid] yielded an EC50 of less than 0.1 µM.
Work on `Cc1nc(CNC(=O)C(=O)N(C)C)c(-c2ccc(OCCc3ccc(F)cc3)cc2)c(N2CCC(C)(C)CC2)c1[C@H](OC(C)(C)C)C(=O)O` [Example 105, (S)-2-(tert-Butoxy)-2-(6-((2-(dimethylamino)-2-oxoacetamido)methyl)-4-(4,4-dimethylpiperidin-1-yl)-5-(4-(4-fluorophenethoxy)phenyl)-2-methylpyridin-3-yl)acetic acid] yielded an EC50 of less than 0.1 µM.
Work on `CC(=O)NCc1nc(C)c([C@H](OC(C)(C)C)C(=O)O)c(N2CCC(C)(C)CC2)c1-c1ccc(OCCc2ccc(F)cc2)cc1` [Example 106, (S)-2-(6-(Acetamidomethyl)-4-(4,4-dimethylpiperidin-1-yl)-5-(4-(4-fluorophenethoxy)phenyl)-2-methylpyridin-3-yl)-2-(tert-butoxy)acetic acid] yielded an EC50 of less than 0.1 µM.
`Cc1nc(CNC=O)c(-c2ccc(OCCc3ccc(F)cc3)cc2)c(N2CCC(C)(C)CC2)c1[C@H](OC(C)(C)C)C(=O)O` [Example 107, (S)-2-(tert-Butoxy)-2-(4-(4,4-dimethylpiperidin-1-yl)-5-(4-(4-fluorophenethoxy)phenyl)-6-(formamidomethyl)-2-methylpyridin-3-yl)acetic acid] was tested, and the EC50 was less than 0.1 µM.
In the case of `CCOCCOCc1nc(C)c(-c2ccc(OCCc3ccc(F)cc3)cc2)c(N2CCC(C)(C)CC2)c1[C@H](OC(C)(C)C)C(=O)O` [Example 108, (S)-2-(tert-Butoxy)-2-(4-(4,4-dimethylpiperidin-1-yl)-2-((2-ethoxyethoxy)methyl)-5-(4-(4-fluorophenethoxy)phenyl)-6-methylpyridin-3-yl)acetic acid], the EC50 is reported as less than 0.1 µM.
With `Cc1nc(COCC2COC2)c([C@H](OC(C)(C)C)C(=O)O)c(N2CCC(C)(C)CC2)c1-c1ccc(OCCc2ccc(F)cc2)cc1` [Example 109, (S)-2-(tert-Butoxy)-2-(4-(4,4-dimethylpiperidin-1-yl)-5-(4-(4-fluorophenethoxy)phenyl)-6-methyl-2-((oxetan-3-ylmethoxy)methyl)pyridin-3-yl)acetic acid] the EC50 was less than 0.1 µM.
`CCOCCOCCOCc1nc(C)c(-c2ccc(OCCc3ccc(F)cc3)cc2)c(N2CCC(C)(C)CC2)c1[C@H](OC(C)(C)C)C(=O)O` [Example 110, (S)-2-(tert-Butoxy)-2-(4-(4,4-dimethylpiperidin-1-yl)-2-((2-(2-ethoxyethoxy)ethoxy)methyl)-5-(4-(4-fluorophenethoxy)phenyl)-6-methylpyridin-3-yl)acetic acid] was tested, and the EC50 was less than 0.1 µM.
In the case of `Cc1nc(COCCCOCc2ccccc2)c([C@H](OC(C)(C)C)C(=O)O)c(N2CCC(C)(C)CC2)c1-c1ccc(OCCc2ccc(F)cc2)cc1` [Example 111, (S)-2-(2-((3-(Benzyloxy)propoxy)methyl)-4-(4,4-dimethylpiperidin-1-yl)-5-(4-(4-fluorophenethoxy)phenyl)-6-methylpyridin-3-yl)-2-(tert-butoxy)acetic acid], the EC50 is reported as less than 0.1 µM.
`Cc1nc(CN(C)C)c([C@H](OC(C)(C)C)C(=O)O)c(N2CCC(C)(C)CC2)c1-c1ccc(OCCc2ccc(F)cc2)cc1` [Example 112, (S)-2-(tert-Butoxy)-2-(2-((dimethylamino)methyl)-4-(4,4-dimethylpiperidin-1-yl)-5-(4-(4-fluorophenethoxy)phenyl)-6-methylpyridin-3-yl)acetic acid] was tested, and the EC50 was less than 0.1 µM.
Work on `Cc1cc(F)ccc1CN1CCc2cc(-c3c(CO)nc(C)c([C@H](OC(C)(C)C)C(=O)O)c3N3CCC(C)(C)CC3)ccc2C1` [Example 113, (S)-2-(tert-Butoxy)-2-(4-(4,4-dimethylpiperidin-1-yl)-5-(2-(4-fluoro-2-methylbenzyl)-1,2,3,4-tetrahydroisoquinolin-6-yl)-6-(hydroxymethyl)-2-methylpyridin-3-yl)acetic acid] yielded an EC50 of less than 0.1 µM.
In the case of `CNCc1nc(C)c([C@H](OC(C)(C)C)C(=O)O)c(N2CCC(C)(C)CC2)c1-c1ccc2c(c1)CCN(Cc1ccc(F)cc1C)C2` [Example 114, (S)-2-(tert-Butoxy)-2-(4-(4,4-dimethylpiperidin-1-yl)-5-(2-(4-fluoro-2-methylbenzyl)-1,2,3,4-tetrahydroisoquinolin-6-yl)-2-methyl-6-((methylamino)methyl)pyridin-3-yl)acetic acid], the EC50 is reported as less than 0.1 µM.
With `Cc1cc(F)ccc1CN1CCc2cc(-c3c(CN(C)C)nc(C)c([C@H](OC(C)(C)C)C(=O)O)c3N3CCC(C)(C)CC3)ccc2C1` [Example 115, (S)-2-(tert-Butoxy)-2-(6-((dimethylamino)methyl)-4-(4,4-dimethylpiperidin-1-yl)-5-(2-(4-fluoro-2-methylbenzyl)-1,2,3,4-tetrahydroisoquinolin-6-yl)-2-methylpyridin-3-yl)acetic acid] the EC50 was less than 0.1 µM.
In the case of `COCCNCc1nc(C)c([C@H](OC(C)(C)C)C(=O)O)c(N2CCC(C)(C)CC2)c1-c1ccc2c(c1)CCN(Cc1ccc(F)cc1C)C2` [Example 116, (S)-2-(tert-Butoxy)-2-(4-(4,4-dimethylpiperidin-1-yl)-5-(2-(4-fluoro-2-methylbenzyl)-1,2,3,4-tetrahydroisoquinolin-6-yl)-6-(((2-methoxyethyl)amino)methyl)-2-methylpyridin-3-yl)acetic acid], the EC50 is reported as less than 0.1 µM.

Same assay, conditions: Human immunodeficiency virus 1, MT2, 120 h, read-out: EC50 μM
With `Cc1nc(CN(C)CC2CCCCC2)c(-c2ccc(OCCc3ccc(F)cc3)cc2)c(N2CCC(C)(C)CC2)c1[C@H](OC(C)(C)C)C(=O)O` [Example 100, (S)-2-(tert-Butoxy)-2-(6-(((cyclohexylmethyl)(methyl)amino)methyl)-4-(4,4-dimethylpiperidin-1-yl)-5-(4-(4-fluorophenethoxy)phenyl)-2-methylpyridin-3-yl)acetic acid] the EC50 was 0.003 µM.
In the case of `Cc1nc(COCC2COC2)c([C@H](OC(C)(C)C)C(=O)O)c(N2CCC(C)(C)CC2)c1-c1ccc(OCCc2ccc(F)cc2)cc1` [Example 109, (S)-2-(tert-Butoxy)-2-(4-(4,4-dimethylpiperidin-1-yl)-5-(4-(4-fluorophenethoxy)phenyl)-6-methyl-2-((oxetan-3-ylmethoxy)methyl)pyridin-3-yl)acetic acid], the EC50 is reported as 0.005 µM.

Reference: patent US10351546B2, “Pyridin-3-yl acetic acid derivatives as inhibitors of human immunodeficiency virus replication” (priority 2015, dated 2019)
